One experiment concerns the target FAAH (Mus musculus (Mouse), UniProt O08914). In words: In vitro competitive activity-based protein profiling, FAAH (mouse). It is filed as biochemical. As to conditions: for inhibition at 1 µM: read-out: FAAH % inh. 1 μM (mouse). In short, it runs like this: (§1)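 Residual MAGL and FAAH activity quantified from fluorescent gel bands after SDS-PAGE. Before that, FP-Rh or HT-01 probe (50 μM stock) labelled for 30 min at 37 °C, following 30 min inhibitor preincubation. Mouse assays used brain membrane fraction or cell lysates, human used prefrontal cortex or cell membranes, all at 1.0 mg/mL protein.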

A further experiment concerns the target MAGL (Mus musculus (Mouse), UniProt O35678). In words: In vitro competitive activity-based protein profiling, MAGL (mouse). The format is biochemical. As to conditions: for inhibition at 1 µM: read-out: MAGL % inh. 1 μM (mouse). Put shortly:
as §1

A word on the IC50: it is the concentration that inhibits the measured activity by half. Higher therefore signals weaker potency.

Sequence of FAAH (O08914 whole entry): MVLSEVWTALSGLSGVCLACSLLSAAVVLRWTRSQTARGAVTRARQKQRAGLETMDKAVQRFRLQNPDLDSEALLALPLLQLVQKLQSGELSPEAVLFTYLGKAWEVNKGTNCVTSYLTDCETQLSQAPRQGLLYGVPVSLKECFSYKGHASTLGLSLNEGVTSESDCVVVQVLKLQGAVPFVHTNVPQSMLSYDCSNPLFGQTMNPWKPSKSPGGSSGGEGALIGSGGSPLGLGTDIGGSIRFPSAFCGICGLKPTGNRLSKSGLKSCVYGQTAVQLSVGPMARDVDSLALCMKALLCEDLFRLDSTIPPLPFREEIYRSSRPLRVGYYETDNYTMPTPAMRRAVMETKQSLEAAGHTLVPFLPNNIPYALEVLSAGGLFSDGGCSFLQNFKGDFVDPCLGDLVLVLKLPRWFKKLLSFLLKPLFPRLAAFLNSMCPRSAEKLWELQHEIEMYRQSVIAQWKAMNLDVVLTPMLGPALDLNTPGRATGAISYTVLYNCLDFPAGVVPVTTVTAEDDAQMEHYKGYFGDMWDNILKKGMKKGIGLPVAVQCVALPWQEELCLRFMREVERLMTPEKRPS
Sequence of MAGL (O35678 whole entry): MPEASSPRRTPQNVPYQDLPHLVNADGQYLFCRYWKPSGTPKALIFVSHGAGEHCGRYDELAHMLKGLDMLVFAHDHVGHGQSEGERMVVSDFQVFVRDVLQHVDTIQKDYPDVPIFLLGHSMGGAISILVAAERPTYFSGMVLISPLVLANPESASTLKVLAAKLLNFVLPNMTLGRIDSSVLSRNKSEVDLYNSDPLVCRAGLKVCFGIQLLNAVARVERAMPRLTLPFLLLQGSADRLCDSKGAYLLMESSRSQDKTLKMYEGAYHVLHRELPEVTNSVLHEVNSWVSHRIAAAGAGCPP

In the case of `CC(=O)N(C)c1cnn(C(=O)N2CCC3(CCN(Cc4ccc(-c5cncnc5)cc4Cl)C3)C2)c1` (centres unmarked) [Example 262, N-(1-(7-(2-chloro-4-(pyrimidin-5-yl)benzyl)-2,7-diazaspiro[4.4]nonane-2-carbonyl)-1H-pyrazol-4-yl)-N-methylacetamide], the inhibition at 1 µM on FAAH and at MAGL was no less than 75% each time.
With `CC(=O)N(C)c1cnn(C(=O)N2CCC3(CCN(Cc4ccc(-c5cccnn5)cc4Cl)C3)C2)c1` (centres unmarked) [Example 263, N-(1-(7-(2-chloro-4-(pyridazin-3-yl)benzyl)-2,7-diazaspiro[4.4]nonane-2-carbonyl)-1H-pyrazol-4-yl)-N-methylacetamide], the inhibition at 1 µM at FAAH and on MAGL was no less than 75% each time.
As for `CC(=O)N(C)c1cnn(C(=O)N2CCC3(CCN(Cc4ccc(-c5cnccn5)cc4Cl)C3)C2)c1` (centres unmarked) [Example 264, N-(1-(7-(2-chloro-4-(pyrazin-2-yl)benzyl)-2,7-diazaspiro[4.4]nonane-2-carbonyl)-1H-pyrazol-4-yl)-N-methylacetamide], the inhibition at 1 µM on FAAH and on MAGL was no less than 75% throughout.
For `CC(=O)N(C)c1cnn(C(=O)N2CC3CN(Cc4ccc(Oc5cncnc5)cc4C(F)(F)F)CC3C2)c1` (centres unmarked) [Example 265, N-methyl-N-(1-(5-(4-(pyrimidin-5-yloxy)-2-(trifluoromethyl)benzyl)octahydropyrrolo [3,4-c]pyrrole-2-carbonyl)-1H-pyrazol-4-yl)acetamide], the inhibition at 1 µM at FAAH and at MAGL was no less than 75% each time.
As for `CC(=O)N(C)c1cnn(C(=O)N2CC3CN(Cc4ccc(-c5cnccn5)cc4Cl)CC3C2)c1` (centres unmarked) [Example 266, N-(1-(5-(2-chloro-4-(pyrazin-2-yl)benzyl)octahydropyrrolo[3,4-c]pyrrole-2-carbonyl)-1H-pyrazol-4-yl)-N-methylacetamide], the inhibition at 1 µM at FAAH and at MAGL was no less than 75% in each case.
For the molecule `CC(=O)N(C)c1cnn(C(=O)N2CC3CN(Cc4ccc(-c5nccs5)cc4Cl)CC3C2)c1` (centres unmarked) [Example 267, N-(1-(5-(2-chloro-4-(thiazol-2-yl)benzyl)octahydropyrrolo[3,4-c]pyrrole-2-carbonyl)-1H-pyrazol-4-yl)-N-methylacetamide], the inhibition at 1 µM at FAAH and on MAGL was no less than 75% in each case.
Regarding `CC(=O)N(C)c1cnn(C(=O)N2CCC3(CCN(Cc4ccc(-c5ncccn5)cc4Cl)C3)C2)c1` (centres unmarked) [Example 268, N-(1-(7-(2-chloro-4-(pyrimidin-2-yl)benzyl)-2,7-diazaspiro[4.4]nonane-2-carbonyl)-1H-pyrazol-4-yl)-N-methylacetamide], the inhibition at 1 µM on FAAH and on MAGL was no less than 75% throughout.
For `CC(=O)N(C)c1cnn(C(=O)N2CCC3(CCN(Cc4ccc(-c5nccs5)cc4Cl)C3)C2)c1` (centres unmarked) [Example 269, N-(1-(7-(2-chloro-4-(thiazol-2-yl)benzyl)-2,7-diazaspiro[4.4]nonane-2-carbonyl)-1H-pyrazol-4-yl)-N-methylacetamide], the inhibition at 1 µM on FAAH and at MAGL was no less than 75% in each case.
With `CC(=O)N(C)c1cnn(C(=O)N2CC3CN(Cc4ccc(OC5CCN(C6CC6)CC5)cc4Cl)CC3C2)c1` (centres unmarked) [Example 270, N-(1-(5-(2-chloro-4-((1-cyclopropylpiperidin-4-yl)oxy)benzyl)octahydropyrrolo[3,4-c]pyrrole-2-carbonyl)-1H-pyrazol-4-yl)-N-methylacetamide], the inhibition at 1 µM at FAAH and on MAGL was no less than 75% each time.
Consider `CC(=O)N(C)c1cnn(C(=O)N2CC3CN(Cc4ccc(OC5CCN(C6CC6)CC5)cc4C(F)(F)F)CC3C2)c1` (centres unmarked) [Example 271, N-(1-(5-(4-((1-cyclopropylpiperidin-4-yl)oxy)-2-(trifluoromethyl)benzyl)octahydropyrrolo [3,4-c]pyrrole-2-carbonyl)-1H-pyrazol-4-yl)-N-methylacetamide], for which the inhibition at 1 µM at FAAH and on MAGL was no less than 75% each time.
Turning to `CC(=O)N(C)c1cnn(C(=O)N2CC3CN(Cc4ccc(-c5ccncn5)cc4Cl)CC3C2)c1` (centres unmarked) [Example 272, N-(1-(5-(2-chloro-4-(pyrimidin-4-yl)benzyl)octahydropyrrolo[3,4-c]pyrrole-2-carbonyl)-1H-pyrazol-4-yl)-N-methylacetamide], the inhibition at 1 µM at FAAH and at MAGL was no less than 75% in each case.
`CC(=O)N(C)c1cnn(C(=O)N2CCC3(CCN(Cc4ccc(-c5ccncn5)cc4Cl)C3)C2)c1` (centres unmarked) [Example 273, N-(1-(7-(2-chloro-4-(pyrimidin-4-yl)benzyl)-2,7-diazaspiro[4.4]nonane-2-carbonyl)-1H-pyrazol-4-yl)-N-methylacetamide]: at FAAH, the IC50 was no more than 100 nM and the inhibition at 1 µM was no less than 75%. On MAGL, the IC50 lay within 100 to 1000 nM and the inhibition at 1 µM is no less than 75%.
Regarding `CS(=O)(=O)Nc1cnn(C(=O)N2CC3CN(Cc4cc(Cl)ccc4C(F)(F)F)CC3C2)c1` (centres unmarked) [Example 275, N-(1-(5-(5-chloro-2-(trifluoromethyl)benzyl)octahydropyrrolo [3,4-c]pyrrole-2-carbonyl)-1H-pyrazol-4-yl)methanesulfonamide], the IC50 on FAAH is 100 to 1000 nM; at MAGL, no more than 100 nM. In addition, the inhibition at 1 µM at FAAH and on MAGL was no less than 75% each time.
With `CS(=O)(=O)Nc1cnn(C(=O)N2CCC3(CCN(Cc4cc(Cl)ccc4C(F)(F)F)C3)CC2)c1` [Example 276, N-(1-(2-(5-chloro-2-(trifluoromethyl)benzyl)-2,8-diazaspiro[4.5]decane-8-carbonyl)-1H-pyrazol-4-yl)methanesulfonamide], the inhibition at 1 µM on FAAH and on MAGL was no less than 75% throughout.
As for `CS(=O)(=O)Nc1cnn(C(=O)N2CCC3(CC2)CN(Cc2cc(Cl)ccc2C(F)(F)F)C3)c1` [Example 277, N-(1-(2-(5-chloro-2-(trifluoromethyl)benzyl)-2,7-diazaspiro[3.5]nonane-7-carbonyl)-1H-pyrazol-4-yl)methanesulfonamide], on FAAH, the IC50 was no more than 100 nM and the inhibition at 1 µM is no less than 75%. For the same molecule, at MAGL, the IC50 was no more than 100 nM and the inhibition at 1 µM is no less than 75%.
`CN(Cc1cc(Cl)ccc1C(F)(F)F)[C@H]1C[C@@H]2CN(C(=O)n3cc(NS(C)(=O)=O)cn3)C[C@@H]2C1` [Example 278, N-(1-[[trans-5-([[5-chloro-2-(trifluoromethyl)phenyl]methyl](methyl)amino)-octahydrocyclopenta[c]pyrrol-2-yl)carbonyl]-1H-pyrazol-4-yl)methanesulfonamide]: the inhibition at 1 µM on FAAH and on MAGL was no less than 75% in each case.
Consider `CS(=O)(=O)Nc1cnn(C(=O)N2CC3CN(Cc4ccc(N5CCCC5)cc4C(F)(F)F)CC3C2)c1` (centres unmarked) [Example 279, N-(1-(5-(4-(pyrrolidin-1-yl)-2-(trifluoromethyl)benzyl)octahydropyrrolo [3,4-c]pyrrole-2-carbonyl)-1H-pyrazol-4-yl)methanesulfonamide], for which the figures for the IC50 on FAAH and at MAGL were 100 to 1000 nM and no more than 100 nM, respectively. Besides, the inhibition at 1 µM at FAAH and at MAGL was no less than 75% each time.
Take `CS(=O)(=O)Nc1cnn(C(=O)N2CCC3(CCN(Cc4ccc(N5CCCC5)cc4C(F)(F)F)C3)CC2)c1` [Example 280, N-(1-(2-(4-(pyrrolidin-1-yl)-2-(trifluoromethyl)benzyl)-2,8-diazaspiro[4.5]decane-8-carbonyl)-1H-pyrazol-4-yl)methanesulfonamide]: the inhibition at 1 µM on FAAH and at MAGL was no less than 75% throughout.

The record behind these values is US10323038B2, “Pyrazole compounds and methods of making and using same” (ABIDE THERAPEUTICS, INC., priority 2015, dated 2019).
